For assay [1], the target named is T1, human GST-DYRK1A (Homo sapiens, UniProt Q13627).
T1 construct: purified human GST-DYRK1A (full length, Thermo Scientifics) enzyme; purchased Thermo Scientifics
The experiment in a line: GST-DYRK1A enzyme inhibition, ADP-Glo kinase assay. The format is biochemical. The note with it: ATP 10 μM, GST-DYRK1A full length, read-out: DYRK1 IC50. The method, boiled down: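 Full-length enzyme (10 ng) was incubated with 10 μM ATP and a specific substrate for 1 h at 25 °C in 40 mM Tris-HCl pH 7.4, 20 mM MgCl2, 0.5 mg/mL BSA, 50 μM DTT. Luminescence was read against a solvent control, and IC50 values were derived from 3 data sets.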

The subject of assay [2] is MDA-MB-231 cell line. The experiment in a line: Inhibition of proliferation of MDA-MB-231 cancer cells (Cell Titer-Glo). The format is cell-based. The note with it: Homo sapiens, 72 hours. The method, boiled down: (§1)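 Luminescence from Cell Titer-Glo (10 min, room temperature) gave GI50 after 72 h compound treatment. Final compound levels spanned 0.000169–10.000000 μM over 11 points, 3-fold steps; 2,000 cells/well grown in DMEM or RPMI.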

In assay [3] the target is T2, human GST-CLK1 (Homo sapiens, UniProt P49759).
T2 construct: purified human GST-CLK1 (129-end, SignalChem) enzyme; purchased SignalChem
T2 sequence (P49759 129-484 limits assumed): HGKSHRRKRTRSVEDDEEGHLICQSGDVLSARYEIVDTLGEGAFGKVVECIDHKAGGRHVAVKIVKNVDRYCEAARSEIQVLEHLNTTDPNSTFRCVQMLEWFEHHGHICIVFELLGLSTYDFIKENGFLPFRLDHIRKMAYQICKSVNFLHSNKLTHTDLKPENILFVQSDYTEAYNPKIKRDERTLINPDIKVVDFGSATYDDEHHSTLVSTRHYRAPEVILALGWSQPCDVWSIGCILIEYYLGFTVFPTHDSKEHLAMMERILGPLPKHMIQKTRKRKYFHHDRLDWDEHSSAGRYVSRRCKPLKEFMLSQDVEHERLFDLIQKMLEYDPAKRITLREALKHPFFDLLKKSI
The experiment in a line: GST-CLK1 enzyme inhibition, ADP-Glo kinase assay. Format: biochemical. As to conditions: ATP 10 μM, GST-CLK1 129-end. The method, boiled down: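 ADP-Glo luminescence read-out, relative to untreated solvent control, gave IC50 (nM) from triplicate data sets. Reactions ran an hour at 25° C with 3 ng GST-CLK1 (residues 129-end), 10 μM ATP and specific substrate in Tris-HCl pH 7.4 buffer with MgCl2, BSA and DTT.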
A general note: ADP-Glo first removes unused ATP, then detects ADP through luciferase.

In assay [4] the test system is MDA-MB-468 cell line. Put plainly: Inhibition of proliferation of MDA-MB-468 cancer cells (Cell Titer-Glo). Format: cell-based. As to conditions: Homo sapiens, MDA-MB-468, 72 hours. Summed up: as §1
(In general: Cellular ATP, detected with luciferase, serves as a proxy for viable cell number.)

Assay [5] addresses T3, TTK (Homo sapiens, UniProt P33981).
T3 sequence (P33981 1-857): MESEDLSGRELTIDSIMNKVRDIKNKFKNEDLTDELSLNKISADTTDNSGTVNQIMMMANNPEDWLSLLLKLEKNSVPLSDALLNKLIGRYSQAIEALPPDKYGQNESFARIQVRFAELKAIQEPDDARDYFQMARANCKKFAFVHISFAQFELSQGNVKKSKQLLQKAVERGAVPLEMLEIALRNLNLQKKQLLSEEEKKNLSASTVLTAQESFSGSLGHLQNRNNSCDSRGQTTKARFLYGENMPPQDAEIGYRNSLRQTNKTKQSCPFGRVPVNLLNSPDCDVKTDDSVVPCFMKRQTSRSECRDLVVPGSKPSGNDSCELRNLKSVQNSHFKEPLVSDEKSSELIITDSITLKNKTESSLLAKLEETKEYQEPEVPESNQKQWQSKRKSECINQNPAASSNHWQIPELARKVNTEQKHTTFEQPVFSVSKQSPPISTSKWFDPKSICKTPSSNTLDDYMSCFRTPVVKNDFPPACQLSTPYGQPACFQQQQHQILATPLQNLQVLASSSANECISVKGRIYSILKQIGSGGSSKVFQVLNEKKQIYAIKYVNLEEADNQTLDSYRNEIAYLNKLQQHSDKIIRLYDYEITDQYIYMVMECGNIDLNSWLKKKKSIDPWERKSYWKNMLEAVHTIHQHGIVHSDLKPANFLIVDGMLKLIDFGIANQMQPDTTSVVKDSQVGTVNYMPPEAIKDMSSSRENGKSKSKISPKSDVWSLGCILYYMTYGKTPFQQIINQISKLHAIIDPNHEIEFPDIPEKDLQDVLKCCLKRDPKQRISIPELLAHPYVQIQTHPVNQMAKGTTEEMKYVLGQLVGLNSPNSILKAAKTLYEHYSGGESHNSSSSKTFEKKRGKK
Put plainly: TTK enzyme inhibition, ADP-Glo kinase assay. Set-up: purchased SignalChem T20-10G. The note with it: ATP 5 μM. The format is biochemical. The method, then:
To evaluate an inhibitory activity of the compound according to the present invention against LRRK2, LRRK2 (G2019S), DYRK1, CLK1, and TTK kinases, experiments were performed as follows.
Each of the Example compounds was reacted with a purified human TTK (SignalChem #T20-10G) enzyme to evaluate an ability to inhibit an enzyme using a method as described below. A composition of 40 mM Tris-HCl (pH 7.4), 20 mM MgCl2, 0.1 mg/mL BSA (a 5× kinase buffer, SignalChem #K03-09), and 50 μM DTT (SignalChem #D86-09B) was used as a reaction buffer, and all reactions of test substances were performed in the reaction buffer. Each of the compounds was diluted […] from a 10 mM DMSO stock using a serial dilution method, and enzyme activities were measured at final compound concentrations of 1, 0.333333, 0.111111, 0.037037, 0.012346, 0.004115, 0.001372, 0.000457, 0.000152, 0.000051, and 0.000017 μM. In the test, purified ATP (5 μM, Promega #V6930) and an MBP enzyme substrate (0.2 μg, SignalChem M42-51N) were reacted with a human TTK (7.5 ng) enzyme at 25° C. for 4 hours, and the enzyme activities were then determined using an in vitro ADP-Glo™ kinase assay (Promega #V6930). An enzyme-activity reaction solution, an ADP-Glo reaction solution, and an enzyme-ability detection solution were reacted at a ratio of 2:2:1 to measure a degree of inhibition of the enzyme activity with luminescence. The degree of inhibition of the enzyme activity according to the treatment concentration of each of the compounds was calculated based on the fluorescence of the enzyme activity of the solvent control which was not treated with the compound. In this case, the concentration of each of the compounds inhibiting 50% of the enzyme activity was determined to be an IC50 (nM) value, and calculated using Prism (Version 8.2 GraphPad) software.

Where only a bound is given, the exact number is not on record here.

A word on the IC50: it is the concentration needed to halve the response being measured. Usually GI50 stands for the concentration giving 50% growth inhibition. As for `CN1CCC(NC(=O)c2ccc(Nc3nc(NC4CCCCC4)c4c(C#N)c[nH]c4n3)c3c2OCCO3)CC1` [Example 143, 8-((5-cyano-4-(cyclohexylamino)-7H-pyrrolo[2,3-d]pyrimidin-2-yl)amino)-N-(1-methylpiperidin-4-yl)-2,3-dihydrobenzo[b][1,4]dioxin-5-carboxamide], the IC50 in assay [1] is 301 to 1000 nM; in assay [3], less than 100 nM; in assay [5] it was less than 100 nM. Besides, the GI50 in assay [2] and in assay [4] was 51 to 100 nM each time.

As to `N#Cc1c[nH]c2nc(Nc3ccc(C(=O)N4CCOCC4)c4c3OCO4)nc(NC3CCCCC3)c12` [Example 150, 4-(cyclohexylamino)-2-((7-(morpholine-4-carbonyl)benzo[d][1,3]dioxol-4-yl)amino)-7H-pyrrolo[2,3-d]pyrimidine-5-carbonitrile], the IC50 in assay [1] is 301 to 1000 nM; in assay [3], 301 to 1000 nM; in assay [5], less than 100 nM. Moreover, the concentration for 50% growth inhibition (GI50) in assay [2] and in assay [4] was 51 to 100 nM in each case.

`CN1CCC(NC(=O)c2ccc(Nc3nc(NC4CCCC4)c4c(C#N)c[nH]c4n3)c3c2OCCO3)CC1` [Example 146, 8-((5-cyano-4-(cyclopentylamino)-7H-pyrrolo[2,3-d]pyrimidin-2-yl)amino)-N-(1-methylpiperidin-4-yl)-2,3-dihydrobenzo[b][1,4]dioxin-5-carboxamide]: the GI50 in assay [2] and in assay [4] was 101 to 300 nM each time. In assay [5], this molecule returned an IC50 of less than 100 nM.

With `N#Cc1c[nH]c2nc(Nc3ccc(C(=O)N4CCN(C5CC5)CC4)c4c3OCCO4)nc(NC3CCCCC3)c12` [Example 145], the IC50 in assay [1] was 301 to 1000 nM; in assay [3], 301 to 1000 nM; in assay [5] it was less than 100 nM. The GI50 in assay [2] and in assay [4] was 51 to 100 nM each time.

As to `CCN1CCP(=O)(c2ccc(Nc3nc(NC4CCCCC4)c4c(C#N)c[nH]c4n3)c(OC)c2)CC1` [Example 151, 4-(cyclohexylamino)-2-((4-(1-ethyl-4-oxido-1,4-azaphosphinan-4-yl)-2-methoxyphenyl)amino)-7H-pyrrolo[2,3-d]pyrimidine-5-carbonitrile], the results for the IC50 in assay [1], in assay [3] and in assay [5] were 301 to 1000 nM, 101 to 300 nM and less than 100 nM, respectively. In addition, the GI50 in assay [2] fell in the range of 101 to 300 nM; in assay [4], 51 to 100 nM.

As to `N#Cc1c[nH]c2nc(Nc3ccc(C(=O)N4CCN(C5COC5)CC4)c4c3OCCO4)nc(NC3CCCCC3)c12` [Example 144, 4-(cyclohexylamino)-2-((8-(4-(oxetan-3-yl)piperazine-1-carbonyl)-2,3-dihydrobenzo[b][1,4]dioxin-5-yl)amino)-7H-pyrrolo[2,3-d]pyrimidine-5-carbonitrile], the half-maximal inhibitory concentration (IC50) in assay [1] is 301 to 1000 nM; in assay [3], 101 to 300 nM; in assay [5] it was less than 100 nM. The GI50 is less than 50 nM in assay [2] and 51 to 100 nM in assay [4].

Turning to `N#Cc1c[nH]c2nc(Nc3ccc(C(=O)N4CCN(C5COC5)CC4)c4c3OCCO4)nc(NC3CCCC3)c12` [Example 147, 4-(cyclopentylamino)-2-((8-(4-(oxetan-3-yl)piperazine-1-carbonyl)-2,3-dihydrobenzo[b][1,4]dioxin-5-yl)amino)-7H-pyrrolo[2,3-d]pyrimidin-5-carbonitrile], the IC50 in assay [1] is 301 to 1000 nM; in assay [3] it was less than 100 nM; in assay [5], less than 100 nM. Also, the GI50 in assay [2] was 101 to 300 nM; in assay [4] it was 51 to 100 nM.

With `N#Cc1c[nH]c2nc(Nc3ccc(C(=O)N4CCCC4)c4c3OCCO4)nc(NC3CCCCC3)c12` [Example 149, 4-(cyclohexylamino)-2-((8-(pyrrolidine-1-carbonyl)-2,3-dihydrobenzo[b][1,4]dioxin-5-yl)amino)-7H-pyrrolo[2,3-d]pyrimidine-5-carbonitrile], the IC50 in assay [1] is 301 to 1000 nM; in assay [3], 301 to 1000 nM; in assay [5], less than 100 nM. Moreover, the GI50 in assay [2] was less than 50 nM; in assay [4] it was 51 to 100 nM.

For `N#Cc1c[nH]c2nc(Nc3ccc(C(=O)N4CCOCC4)c4c3OCO4)nc(NC3CCCC3)c12` [Example 152, 4-(cyclopentylamino)-2-((7-(morpholine-4-carbonyl)benzo[d][1,3]dioxol-4-yl)amino)-7H-pyrrolo[2,3-d]pyrimidine-5-carbonitrile], the results for the half-maximal inhibitory concentration (IC50) in assay [1], in assay [3] and in assay [5] were 101 to 300 nM, less than 100 nM and less than 100 nM, respectively. For the same molecule, the GI50 in assay [2] and in assay [4] was 51 to 100 nM each time.

For `COc1cc(P2(=O)CCN(C3COC3)CC2)ccc1Nc1nc(NC2CCCC2)c2c(C#N)c[nH]c2n1` [Example 313, 4-(cyclo-pentylamino)-2-((2-methoxy-4-(1-(oxetan-3-yl)-4-oxido-1,4-azaphosphinan-4-yl)phenyl)amino)-7H-pyrrolo[2,3-d]pyrimidine-5-carbonitrile], the values for the IC50 in assay [1], in assay [3] and in assay [5] were 101 to 300 nM, 101 to 300 nM and less than 100 nM, respectively.

For `N#Cc1c[nH]c2nc(Nc3ccc(C(=O)N4CCN(C5CC5)CC4)c4c3OCCO4)nc(NC3CCCC3)c12` [Example 148, 4-(cyclopentylamino)-2-((8-(4-cyclopropylpiperazine-1-carbonyl)-2,3-dihydrobenzo[b][1,4]dioxin-5-yl)amino)-7H-pyrrolo[2,3-d]pyrimidine-5-carbonitrile], the values for the IC50 in assay [1], in assay [3] and in assay [5] were 301 to 1000 nM, 301 to 1000 nM and less than 100 nM, respectively. Besides, the GI50 in assay [2] and in assay [4] was 101 to 300 nM in each case.

Turning to `COc1cc(P2(=O)CCN(C3CCOCC3)CC2)ccc1Nc1nc(NC2CCCCC2)c2cc[nH]c2n1` [Example 61, 4-(4-((4-(cyclohexylamino)-7H-pyrrolo[2,3-d]pyrimidin-2-yl)amino)-3-methoxyphenyl)-1-(tetrahydro-2H-pyran-4-yl)-1,4-azaphosphinane 4-oxide], the IC50 in assay [1] is 301 to 1000 nM; in assay [3], 301 to 1000 nM; in assay [5], less than 100 nM. The GI50 in assay [2] fell in the range of 301 to 1000 nM.
